Data taken from ChEMBL document CHEMBL1124124, “Synthesis and interaction with uridine phosphorylase of 5'-deoxy-4',5-difluorouridine, a new prodrug of 5-fluorouracil” (J Med Chem, 1988).

Test system: Uridine phosphorylase (Mus musculus)
Test: Relative Vmax for interaction with Urd phosphorylase

For C[C@@]1(F)OC(n2cc(F)c(=O)[nH]c2=O)[C@H](O)[C@@H]1O (stereo partly specified), the Relative Vmax was 5.
